Reference: patent US20240101570A1 (AMGEN INC., priority 2020, published 2024)

Test system: HCT116 MTAP null cells
Experiment: HCT116 MTAP null cell proliferation / viability (CellTiter-Glo, 6 days)
Assay type: cell-based
Settings: HCT116-MTAP null, 144 h, HCT116 MTAP null cells, 6 days, CellTiter-Glo; read-out: HCT-116 MTAP null IC50
Description: (§1) HCT116 MTAP null and WT cells were seeded in 96-well tissue culture plates in RPMI 1640 media+10% fetal bovine serum. Plates were incubated overnight at 37° C. and 5% CO2. Cells were then treated with an 8- or 9-point serial dilution of compound, using a top concentration of 1, or 10 μM, 1:3 serial dilution steps and, a DMSO-only control. Cells were incubated in the presence of drug for 6 days. Effects on cell viability were measured with the CellTiter-Glo® Luminescent Cell Viability Assay (Promega) per manufacturer's recommendation. Assay plates were read on an EnVision™ Multilabel Reader using the Ultra-Sensitive luminescence module. IC50 values were calculated with GraphPad Prism v 5.01 using symmetrical sigmoidal dose-response least squares fit with Hill slope fixed to −1 and top constrain to 100% or GeneData Screener using a 4-parameter logistic model to fit dose response curves.
(§2) Alternatively, compounds could be assayed with a 384 well plate format:
(§3) Compounds were pre-spotted into 384 well plates with a 22-point serial dilution of compound, using a top concentration of 10 or 50 μM, 1:2 serial dilution steps and, a DMSO-only control. HCT116 MTAP null and WT cells were then seeded as above and after 6 days effects on cell viability were measured with the CellTiter-Glo® Luminescent Cell Viability Assay (Promega). Assay plates were read as above and IC50 values were calculated with GeneData Screener using a 4-parameter logistic model to fit dose response curves. The reported IC50 represents the value where the curve transits 50% of control.

First: COCC(C)N(Cc1ccc(C(F)(F)F)nn1)C(=O)c1ccc2nc(N)c3c(c2c1)CO[C@@H]3C (mixture of isomers) [Example 304, (3R)-4-amino-N-((2R)-1-methoxy-2-propanyl)-3-methyl-N-((6-(trifluoromethyl)-3-pyridazinyl)methyl)-1,3-dihydrofuro[3,4-c]quinoline-8-carboxamide and (3R)-4-amino-N-((2S)-1-methoxy-2-propanyl)-3-methyl-N-((6-(trifluoromethyl)-3-pyridazinyl)methyl)-1,3-dihydrofuro[3,4-c]quinoline-8-carboxamide]
Second: COCC(C)N(Cc1ccc(C(F)(F)F)nn1)C(=O)c1cc2c3c(c(N)nc2cn1)[C@@H](C)OC3 (mixture of isomers) [Example 314, (3R)-4-amino-N-((2R)-1-methoxy-2-propanyl)-3-methyl-N-((6-(trifluoromethyl)-3-pyridazinyl)methyl)-1,3-dihydrofuro[3,4-c][1,7]naphthyridine-8-carboxamide and (3R)-4-amino-N-((2S)-1-methoxy-2-propanyl)-3-methyl-N-((6-(trifluoromethyl)-3-pyridazinyl)methyl)-1,3-dihydrofuro[3,4-c][1,7]naphthyridine-8-carboxamide]
The IC50 of the first is 9.8-fold lower: 26 nM for the first, 254 nM for the second.

First: COCC(C)N(Cc1ccc(C(F)(F)F)nn1)C(=O)c1ccc2nc(N)c3c(c2c1)COC3 (racemic) [Example 303, 4-amino-N-((2R)-1-methoxy-2-propanyl)-N-((6-(trifluoromethyl)-3-pyridazinyl)methyl)-1,3-dihydrofuro[3,4-c]quinoline-8-carboxamide and 4-amino-N-((2S)-1-methoxy-2-propanyl)-N-((6-(trifluoromethyl)-3-pyridazinyl)methyl)-1,3-dihydrofuro[3,4-c]quinoline-8-carboxamide]
Second: COCC(C)N(Cc1ccc(C(F)(F)F)nn1)C(=O)c1cc2c3c(c(N)nc2cn1)COC3 (racemic) [Example 390, 4-amino-N-((2R)-1-methoxy-2-propanyl)-N-((6-(trifluoromethyl)-3-pyridazinyl)methyl)-1,3-dihydrofuro[3,4-c][1,7]naphthyridine-8-carboxamide and 4-amino-N-((2S)-1-methoxy-2-propanyl)-N-((6-(trifluoromethyl)-3-pyridazinyl)methyl)-1,3-dihydrofuro[3,4-c][1,7]naphthyridine-8-carboxamide]
The IC50 of the first is 11-fold lower: 24 nM for the first, 262 nM for the second. The first is the more potent here.

Compared with `CC(C)N(Cc1ccc(Br)nn1)C(=O)c1ccc2nc(N)c3c(c2c1)COC3` [Example 335, 4-amino-N-((6-bromo-3-pyridazinyl)methyl)-N-(2-propanyl)-1,3-dihydrofuro[3,4-c]quinoline-8-carboxamide], `CC(C)(C)CN(Cc1ccc(C(F)(F)F)cn1)C(=O)c1ccc2nc(N)c3c(c2c1)COC3` [Example 342, 4-amino-N-(2,2-dimethylpropyl)-N-((5-(trifluoromethyl)-2-pyridinyl)methyl)-1,3-dihydrofuro[3,4-c]quinoline-8-carboxamide] is 3.6-fold higher in IC50: 361 nM for the first, 1310 nM for the second. The first is the more potent here.

First: CC1(N(Cc2ccc(C(F)(F)F)cn2)C(=O)c2cc3c4c(c(N)nc3cn2)COC4)CC1 [Example 699, 4-amino-N-(1-methylcyclopropyl)-N-((5-(trifluoromethyl)-2-pyridinyl)methyl)-1,3-dihydrofuro[3,4-c][1,7]naphthyridine-8-carboxamide]
Second: CC1OCc2c1c(N)nc1ccc(C(=O)N(Cc3ccc(C(F)(F)F)cn3)CC3CCOC3)cc21 (stereo not drawn) [Example 927, 4-amino-3-methyl-N-((tetrahydrofuran-3-yl)methyl)-N-((5-(trifluoromethyl)pyridin-2-yl)methyl)-1,3-dihydrofuro[3,4-c]quinoline-8-carboxamide]
The IC50 of the first is 3.6-fold higher: 249 nM for the first, 69 nM for the second. The second is the more potent here.

Going from `CC1OCc2c1c(N)nc1ccc(C(=O)N(Cc3ccc(C(F)(F)F)cn3)C(C)C3CCOCC3)cc21` (stereo not drawn) [Example 891, 4-amino-3-methyl-N-(1-(tetrahydro-2H-pyran-4-yl)ethyl)-N-((5-(trifluoromethyl)pyridin-2-yl)methyl)-1,3-dihydrofuro[3,4-c]quinoline-8-carboxamide] to `CC1OCc2c1c(N)nc1ccc(C(=O)N(Cc3ccc(C(F)(F)F)cn3)C(C)C(C)O)cc21` (stereo not drawn) [Example 920, 4-amino-N-(3-hydroxybutan-2-yl)-3-methyl-N-((5-(trifluoromethyl)pyridin-2-yl)methyl)-1,3-dihydrofuro[3,4-c]quinoline-8-carboxamide], the IC50 rises from 40 nM to 76 nM (1.9-fold).

First: CC1OCc2c1c(N)nc1ccc(C(=O)N(Cc3ccc(C(F)(F)F)cn3)C[C@H]3CC[C@H](O)CC3)cc21 (stereo partly drawn) [Example 893, 4-amino-N-(((1r,4r)-4-hydroxycyclohexyl)methyl)-3-methyl-N-((5-(trifluoromethyl)pyridin-2-yl)methyl)-1,3-dihydrofuro[3,4-c]quinoline-8-carboxamide]
Second: CC1OCc2c1c(N)nc1ccc(C(=O)N(Cc3ccc(C#N)cn3)C[C@H]3CC[C@H](O)CC3)cc21 (stereo partly drawn) [Example 894, 4-amino-N-((5-cyanopyridin-2-yl)methyl)-N-(((1r,4r)-4-hydroxycyclohexyl)methyl)-3-methyl-1,3-dihydrofuro[3,4-c]quinoline-8-carboxamide]
The IC50 of the first is 4.4-fold lower: 41 nM for the first, 180 nM for the second.

Compared with `CC1OCc2c1c(N)nc1ccc(C(=O)N(Cc3ccc(C(F)(F)F)cn3)C3CC3N)cc21` (stereo not drawn) [Example 906, 4-amino-N-(2-aminocyclopropyl)-3-methyl-N-((5-(trifluoromethyl)pyridin-2-yl)methyl)-1,3-dihydrofuro[3,4-c]quinoline-8-carboxamide], `CC1OCc2c1c(N)nc1ccc(C(=O)N(Cc3ccc(C(F)(F)F)cn3)C3CCCC(O)C3)cc21` (stereo not drawn) [Example 921, 4-amino-N-(3-hydroxycyclohexyl)-3-methyl-N-((5-(trifluoromethyl)pyridin-2-yl)methyl)-1,3-dihydrofuro[3,4-c]quinoline-8-carboxamide] is 8.5-fold lower in IC50: 790 nM for the first, 93 nM for the second. The second is the more potent here.

`CC1OCc2c1c(N)nc1ccc(C(=O)N(CC3=CCCOC3)Cc3ccc(C#N)cn3)cc21` (stereo not drawn) [Example 912, 4-amino-N-((5-cyanopyridin-2-yl)methyl)-N-((5,6-dihydro-2H-pyran-3-yl)methyl)-3-methyl-1,3-dihydrofuro[3,4-c]quinoline-8-carboxamide] and `CC1OCc2c1c(N)nc1ccc(C(=O)N(Cc3ccc(C#N)cn3)Cc3cnc(N)s3)cc21` (stereo not drawn) [Example 914, 4-amino-N-((2-aminothiazol-5-yl)methyl)-N-((5-cyanopyridin-2-yl)methyl)-3-methyl-1,3-dihydrofuro[3,4-c]quinoline-8-carboxamide] are within 1.5-fold of each other in IC50: 140 nM for the first, 200 nM for the second.

Compared with `CC(C)CN(Cc1ccc(C(F)(F)F)cn1)C(=O)c1ccc2nc(N)c3c(c2c1)COC3C` (stereo not drawn) [Example 919, 4-amino-N-isobutyl-3-methyl-N-((5-(trifluoromethyl)pyridin-2-yl)methyl)-1,3-dihydrofuro[3,4-c]quinoline-8-carboxamide], `CC(O)CN(Cc1ccc(C(F)(F)F)cn1)C(=O)c1ccc2nc(N)c3c(c2c1)COC3C` (stereo not drawn) [Example 923, 4-amino-N-(2-hydroxypropyl)-3-methyl-N-((5-(trifluoromethyl)pyridin-2-yl)methyl)-1,3-dihydrofuro[3,4-c]quinoline-8-carboxamide] is 2.2-fold higher in IC50: 25 nM for the first, 56 nM for the second. The first is the more potent here.

`CC1OCc2c1c(N)nc1ccc(C(=O)N(CCC3CC(O)C3)Cc3ccc(C(F)(F)F)cn3)cc21` (stereo not drawn) [Example 922, 4-amino-N-(2-(3-hydroxycyclobutyl)ethyl)-3-methyl-N-((5-(trifluoromethyl)pyridin-2-yl)methyl)-1,3-dihydrofuro[3,4-c]quinoline-8-carboxamide] and `CC(CO)CN(Cc1ccc(C(F)(F)F)cn1)C(=O)c1ccc2nc(N)c3c(c2c1)COC3C` (stereo not drawn) [Example 924, 4-amino-N-(3-hydroxy-2-methylpropyl)-3-methyl-N-((5-(trifluoromethyl)pyridin-2-yl)methyl)-1,3-dihydrofuro[3,4-c]quinoline-8-carboxamide] are within 1.5-fold of each other in IC50: 48 nM for the first, 43 nM for the second.

`CC1OCc2c1c(N)nc1ccc(C(=O)N(Cc3ccc(C(F)(F)F)cn3)CC(O)C(F)(F)F)cc21` (stereo not drawn) [Example 925, 4-amino-3-methyl-N-(3,3,3-trifluoro-2-hydroxypropyl)-N-((5-(trifluoromethyl)pyridin-2-yl)methyl)-1,3-dihydrofuro[3,4-c]quinoline-8-carboxamide] and `CC(C#N)CN(Cc1ccc(C(F)(F)F)cn1)C(=O)c1ccc2nc(N)c3c(c2c1)COC3C` (stereo not drawn) [Example 928, 4-amino-N-(2-cyanopropyl)-3-methyl-N-((5-(trifluoromethyl)pyridin-2-yl)methyl)-1,3-dihydrofuro[3,4-c]quinoline-8-carboxamide] are within 1.5-fold of each other in IC50: 35 nM for the first, 39 nM for the second.

`CC1OCc2c1c(N)nc1ccc(C(=O)N(Cc3ccc(C(F)(F)F)cn3)Cc3ncn(C)n3)cc21` (stereo not drawn) [Example 926, 4-amino-3-methyl-N-((1-methyl-1H-1,2,4-triazol-3-yl)methyl)-N-((5-(trifluoromethyl)pyridin-2-yl)methyl)-1,3-dihydrofuro[3,4-c]quinoline-8-carboxamide] gave an IC50 of 30 nM.

Test system: HCT116 WT cells
Experiment: HCT116 WT cell proliferation / viability (CellTiter-Glo, 6 days)
Assay type: cell-based
Settings: Homo sapiens, HCT-116, 144 h, HCT116 WT cells, 6 days, CellTiter-Glo; read-out: HCT-116 WT IC50
Description: as §1, §2, §3

Compared with `COCC(C)N(Cc1ccc(C(F)(F)F)nn1)C(=O)c1ccc2nc(N)c3c(c2c1)CO[C@@H]3C` (mixture of isomers) [Example 304, (3R)-4-amino-N-((2R)-1-methoxy-2-propanyl)-3-methyl-N-((6-(trifluoromethyl)-3-pyridazinyl)methyl)-1,3-dihydrofuro[3,4-c]quinoline-8-carboxamide and (3R)-4-amino-N-((2S)-1-methoxy-2-propanyl)-3-methyl-N-((6-(trifluoromethyl)-3-pyridazinyl)methyl)-1,3-dihydrofuro[3,4-c]quinoline-8-carboxamide], `COCC(C)N(Cc1ccc(C(F)(F)F)nn1)C(=O)c1cc2c3c(c(N)nc2cn1)[C@@H](C)OC3` (mixture of isomers) [Example 314, (3R)-4-amino-N-((2R)-1-methoxy-2-propanyl)-3-methyl-N-((6-(trifluoromethyl)-3-pyridazinyl)methyl)-1,3-dihydrofuro[3,4-c][1,7]naphthyridine-8-carboxamide and (3R)-4-amino-N-((2S)-1-methoxy-2-propanyl)-3-methyl-N-((6-(trifluoromethyl)-3-pyridazinyl)methyl)-1,3-dihydrofuro[3,4-c][1,7]naphthyridine-8-carboxamide] is 43-fold higher in IC50: 352 nM for the first, 15200 nM for the second.

Compared with `COCC(C)N(Cc1ccc(C(F)(F)F)nn1)C(=O)c1ccc2nc(N)c3c(c2c1)COC3` (racemic) [Example 303, 4-amino-N-((2R)-1-methoxy-2-propanyl)-N-((6-(trifluoromethyl)-3-pyridazinyl)methyl)-1,3-dihydrofuro[3,4-c]quinoline-8-carboxamide and 4-amino-N-((2S)-1-methoxy-2-propanyl)-N-((6-(trifluoromethyl)-3-pyridazinyl)methyl)-1,3-dihydrofuro[3,4-c]quinoline-8-carboxamide], `COCC(C)N(Cc1ccc(C(F)(F)F)nn1)C(=O)c1cc2c3c(c(N)nc2cn1)COC3` (racemic) [Example 390, 4-amino-N-((2R)-1-methoxy-2-propanyl)-N-((6-(trifluoromethyl)-3-pyridazinyl)methyl)-1,3-dihydrofuro[3,4-c][1,7]naphthyridine-8-carboxamide and 4-amino-N-((2S)-1-methoxy-2-propanyl)-N-((6-(trifluoromethyl)-3-pyridazinyl)methyl)-1,3-dihydrofuro[3,4-c][1,7]naphthyridine-8-carboxamide] is 17-fold higher in IC50: 574 nM for the first, 9900 nM for the second. The first is the more potent here.
